Patent US20260000692A1, “Substituted N-(Pyridin-2-yl)Acetamide Derivatives as CDK12/13 Inhibitors” (Aurigene Oncology Limited, priority 2022, published 2026)

Molecular target: CDK12 (Homo sapiens, UniProt Q9NYV4)
Test: Biochemical assay for CDK12 (LANCE TR-FRET, IC50 determination)
Conditions: for IC50: CDK12, IC50 class, read-out: IC50 μM (in range); for CDK12 % Inhibition @ 10 μM / inhibition at 10 µM: compound at 10 μM; for inhibition at 10 µM: read-out: CDK12 % Inhibition @ 10 μM
Procedure, shortened: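 30 nM CDK12 phosphorylated 100 nM ULight-4E-BP1 (Thr37/Thr46) peptide at 100 µM ATP, as printed, in HEPES pH 7.5 buffer with MgCl2 and DTT. Compound and enzyme were preincubated 60 min, then reacted 60 min at room temperature before stopping with EDTA and Eu anti-phospho antibody. TR-FRET 665/615 ratio gave sigmoidal IC50 fits.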

Chain of CDK12 (Q9NYV4 whole entry): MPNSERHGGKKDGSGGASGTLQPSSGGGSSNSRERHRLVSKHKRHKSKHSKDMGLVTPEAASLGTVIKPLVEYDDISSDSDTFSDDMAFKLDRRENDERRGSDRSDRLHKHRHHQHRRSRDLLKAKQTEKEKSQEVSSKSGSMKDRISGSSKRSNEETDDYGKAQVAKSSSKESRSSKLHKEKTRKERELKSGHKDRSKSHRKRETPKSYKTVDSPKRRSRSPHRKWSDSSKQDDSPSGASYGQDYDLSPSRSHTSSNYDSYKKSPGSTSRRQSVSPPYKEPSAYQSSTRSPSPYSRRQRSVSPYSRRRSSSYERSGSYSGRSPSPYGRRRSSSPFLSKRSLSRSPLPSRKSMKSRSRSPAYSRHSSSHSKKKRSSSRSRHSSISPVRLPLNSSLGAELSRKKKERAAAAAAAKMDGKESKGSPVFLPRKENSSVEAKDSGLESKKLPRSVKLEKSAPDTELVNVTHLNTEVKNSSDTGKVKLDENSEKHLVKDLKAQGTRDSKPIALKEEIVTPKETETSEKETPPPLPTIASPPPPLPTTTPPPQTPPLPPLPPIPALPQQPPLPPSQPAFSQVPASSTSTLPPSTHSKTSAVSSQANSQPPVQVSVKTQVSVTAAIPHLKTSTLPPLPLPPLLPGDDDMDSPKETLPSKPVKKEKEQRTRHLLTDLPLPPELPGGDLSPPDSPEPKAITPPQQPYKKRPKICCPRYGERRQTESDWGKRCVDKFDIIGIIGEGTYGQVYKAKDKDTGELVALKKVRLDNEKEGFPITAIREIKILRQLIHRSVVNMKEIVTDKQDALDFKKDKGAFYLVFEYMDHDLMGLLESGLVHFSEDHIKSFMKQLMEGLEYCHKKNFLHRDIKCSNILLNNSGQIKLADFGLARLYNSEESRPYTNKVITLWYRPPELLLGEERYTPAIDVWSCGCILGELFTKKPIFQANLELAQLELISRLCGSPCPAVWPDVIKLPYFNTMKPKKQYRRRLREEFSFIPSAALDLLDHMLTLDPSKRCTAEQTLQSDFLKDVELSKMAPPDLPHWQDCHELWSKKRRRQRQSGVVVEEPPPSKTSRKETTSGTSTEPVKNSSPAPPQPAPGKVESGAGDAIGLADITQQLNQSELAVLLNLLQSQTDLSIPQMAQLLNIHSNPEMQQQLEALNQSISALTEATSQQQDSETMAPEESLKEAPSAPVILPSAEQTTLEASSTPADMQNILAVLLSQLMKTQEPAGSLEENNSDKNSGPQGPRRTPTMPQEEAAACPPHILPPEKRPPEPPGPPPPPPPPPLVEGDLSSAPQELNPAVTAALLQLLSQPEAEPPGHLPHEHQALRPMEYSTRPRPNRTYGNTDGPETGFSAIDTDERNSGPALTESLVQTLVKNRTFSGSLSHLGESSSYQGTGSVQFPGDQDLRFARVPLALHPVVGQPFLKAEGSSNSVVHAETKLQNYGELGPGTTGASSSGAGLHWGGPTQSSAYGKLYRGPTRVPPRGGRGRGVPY
Chain of CDK12 (O75909 whole entry partner): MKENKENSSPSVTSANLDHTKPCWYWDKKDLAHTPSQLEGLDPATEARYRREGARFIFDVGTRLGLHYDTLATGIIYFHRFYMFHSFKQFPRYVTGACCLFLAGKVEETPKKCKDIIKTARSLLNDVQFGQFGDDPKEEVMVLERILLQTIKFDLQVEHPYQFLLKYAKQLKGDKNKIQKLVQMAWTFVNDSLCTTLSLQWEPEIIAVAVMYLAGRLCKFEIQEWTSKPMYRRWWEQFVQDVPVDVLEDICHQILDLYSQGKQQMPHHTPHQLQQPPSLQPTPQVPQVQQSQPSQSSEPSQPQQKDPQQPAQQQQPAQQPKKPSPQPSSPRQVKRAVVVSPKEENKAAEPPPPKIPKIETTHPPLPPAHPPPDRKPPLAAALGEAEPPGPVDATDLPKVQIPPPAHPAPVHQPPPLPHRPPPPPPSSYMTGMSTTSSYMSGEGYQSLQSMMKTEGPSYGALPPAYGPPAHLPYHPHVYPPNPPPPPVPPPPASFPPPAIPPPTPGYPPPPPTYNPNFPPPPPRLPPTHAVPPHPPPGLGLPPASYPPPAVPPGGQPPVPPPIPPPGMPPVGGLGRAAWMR

| IC50 [µM] | CDK12 % Inhibition @ 10 μM (10 µM) [%] | inhibition at 10 µM [%] | CDK12 % Inhibition @ 10 μM [%] | Structure (SMILES) |
| --- | --- | --- | --- | --- |
| 0.01 to 0.1 | 93 | – | – | CNC(=O)C(C)Oc1cc(NC(=O)Cc2ccc(C3CCCN(C#N)C3)nc2)ncc1Cl (single isomer, unassigned) [Compound 90, 2-((5-chloro-2-(2-(6-(1-cyanopiperidin-3-yl)pyridin-3-yl)acetamido)pyridin-4-yl)oxy)-N-methylpropanamide] |
| 0.01 to 0.1 | – | 90 | – | COc1cc(NC(=O)Cc2ccc(-c3cc(N(C)CCN(C)C)cc(C#N)n3)nc2)ncc1Cl [Compound 173] |
| 0.01 to 0.1 | – | 87 | – | COc1cc(NC(=O)Cc2ccc(C3CCCN(C#N)C3)nc2)ncc1Cl (stereo not drawn) [Compound 78, N-(5-chloro-4-methoxypyridin-2-yl)-2-(6-(1-cyanopiperidin-3-yl)pyridin-3-yl)acetamide] |
| < 0.01 | – | 88 | – | CN1CCC[C@@H](Oc2cc(NC(=O)Cc3ccc(C4=CCCN(C#N)C4)nc3)ncc2Cl)C1 [Compound 46, (R)-N-(5-chloro-4-((1-methylpiperidin-3-yl)oxy)pyridin-2-yl)-2-(1′-cyano-1′,2′,5′,6′-tetrahydro-[2,3′-bipyridin]-5-yl)acetamide] |
| 0.01 to 0.1 | – | 92 | – | CNC(=O)C(C)Oc1cc(NC(=O)Cc2ccc(C3CCCN(C#N)C3)nc2)ncc1Cl (stereo not drawn) [Compound 85, 2-((5-chloro-2-(2-(6-(1-cyanopiperidin-3-yl)pyridin-3-yl)acetamido)pyridin-4-yl)oxy)-N-methylpropanamide] |
| 0.01 to 0.1 | – | 95 | – | COCCOc1cc(C#N)nc(-c2ccc(CC(=O)Nc3cc(OC)c(Cl)cn3)cn2)c1 [Compound 169, N-(5-chloro-4-methoxypyridin-2-yl)-2-(6′-cyano-4′-(2-methoxyethoxy)-[2,2′-bipyridin]-5-yl)acetamide] |
| < 0.01 | – | 94 | – | COc1cc(NC(=O)Cc2ccc(C34CCN(C#N)CC3C4)nc2)ncc1Cl (stereo not drawn) [Compound 133] |
| < 0.01 | – | 80 | – | COc1cc(NC(=O)Cc2ccc(-c3cccc(C#N)n3)nc2)ncc1Cl [Compound 156, N-(5-chloro-4-methoxypyridin-2-yl)-2-(6′-cyano-[2,2′-bipyridin]-5-yl)acetamide] |
| < 0.01 | – | 102 | – | COc1cc(NC(=O)C(C)c2ccc(C3=CCN(C#N)CC3)nc2)ncc1Cl (single isomer, unassigned) [Compound 52] |
| < 0.01 | – | – | 84 | CNC(=O)C(C)Oc1cc(NC(=O)Cc2ccc(C3CCN(C#N)CC3)nc2)ncc1Cl (single isomer, unassigned) [Compound 84, 2-((5-chloro-2-(2-(6-(1-cyanopiperidin-4-yl)pyridin-3-yl)acetamido)pyridin-4-yl)oxy)-N-methylpropanamide] |
| > 0.1 | – | 52 | – | CN1CCC[C@@H](Oc2cc(NC(=O)Cc3ccc(C4CCN(C#N)CC4)nc3)ncc2Cl)C1 [Compound 126, (R)-N-(5-chloro-4-((1-methylpiperidin-3-yl)oxy)pyridin-2-yl)-2-(6-(1-cyanopiperidin-4-yl)pyridin-3-yl)acetamide] |
| 0.01 to 0.1 | – | 89 | – | N#CN1CC=C(c2ccc(CC(=O)Nc3cc(OC4CC5(CNC5)C4)c(Cl)cn3)cn2)CC1 [Compound 137, N-(4-((2-azaspiro[3.3]heptan-6-yl)oxy)-5-chloropyridin-2-yl)-2-(1′-cyano-1′,2′,3′,6′-tetrahydro-[2,4′-bipyridin]-5-yl)acetamide] |
| 0.01 to 0.1 | – | 75 | – | N#CN1CCC=C(c2ccc(CC(=O)Nc3ccc(Cl)cn3)cn2)C1 [Compound 5, N-(5-chloropyridin-2-yl)-2-(1′-cyano-1′,2′,5′,6′-tetrahydro-[2,3′-bipyridin]-5-yl)acetamide] |
| < 0.01 | 98 | – | – | CNC(=O)C(C)Oc1cc(NC(=O)Cc2ccc(C3=CCCN(C#N)C3)nc2)ncc1Cl (single isomer, unassigned) [Compound 58, 2-((5-chloro-2-(2-(1′-cyano-1′,2′,5′,6′-tetrahydro-[2,3′-bipyridin]-5-yl)acetamido)pyridin-4-yl)oxy)-N-methylpropanamide] |
| > 0.1 | – | 78 | – | CP(C)(=O)c1cc(NC(=O)Cc2ccc(C3=CCCN(C#N)C3)nc2)ncc1Cl [Compound 135, N-(5-chloro-4-(dimethylphosphoryl)pyridin-2-yl)-2-(1′-cyano-1′,2′,5′,6′-tetrahydro-[2,3′-bipyridin]-5-yl)acetamide] |
| < 0.01 | – | 89 | – | N#CN1CCC=C(c2ccc(CC(=O)Nc3cc(OC4CCOCC4)c(Cl)cn3)cn2)C1 [Compound 61, N-(5-chloro-4-((tetrahydro-2H-pyran-4-yl)oxy)pyridin-2-yl)-2-(1′-cyano-1′,2′,5′,6′-tetrahydro-[2,3′-bipyridin]-5-yl)acetamide] |
| 0.01 to 0.1 | – | 95 | – | COc1cc(NC(=O)Cc2ccc(-c3ccc(CNC#N)nc3)nc2)ncc1Cl [Compound 130, N-(5-chloro-4-methoxypyridin-2-yl)-2-(6′-(cyanamidomethyl)-[2,3′-bipyridin]-5-yl)acetamide] |
| 0.01 to 0.1 | – | 97 | – | COc1cc(NC(=O)Cc2ccc(-c3cc(C(C)(C)O)cc(C#N)n3)nc2)ncc1Cl [Compound 175, N-(5-chloro-4-methoxypyridin-2-yl)-2-(6′-cyano-4′-(2-hydroxypropan-2-yl)-[2,2′-bipyridin]-5-yl)acetamide] |
| 0.01 to 0.1 | – | 100 | – | COc1cc(NC(=O)Cc2ccc(-c3cc(OC4CCN(C)CC4F)cc(C#N)n3)nc2)ncc1Cl (stereo not drawn) [Compound 198, N-(5-chloro-4-methoxypyridin-2-yl)-2-(6′-cyano-4′-((3-fluoro-1-methylpiperidin-4-yl)oxy)-[2,2′-bipyridin]-5-yl)acetamide] |
| > 0.1 | – | 76 | – | COc1cc(NC(=O)Cc2ccc(-c3nc(C#N)ccc3C)nc2)ncc1Cl [Compound 160, N-(5-chloro-4-methoxypyridin-2-yl)-2-(6′-cyano-3′-methyl-[2,2′-bipyridin]-5-yl)acetamide] |
| < 0.01 | – | 88 | – | COc1cc(NC(=O)Cc2ccc(-c3cc(OC4CCCN(C)C4)cc(C#N)n3)nc2)ncc1Cl (stereo not drawn) [Compound 199, N-(5-chloro-4-methoxypyridin-2-yl)-2-(6′-cyano-4′-((1-methylpiperidin-3-yl)oxy)-[2,2′-bipyridin]-5-yl)acetamide] |
| > 0.1 | – | 116 | – | CC(CN(C)C)Oc1cc(NC(=O)Cc2ccc(C3=CCCN(C#N)C3)nc2)ncc1Cl (stereo not drawn) [Compound 42, N-(5-chloro-4-((1-(dimethylamino)propan-2-yl)oxy)pyridin-2-yl)-2-(1′-cyano-1′,2′,5′,6′-tetrahydro-[2,3′-bipyridin]-5-yl)acetamide] |
| < 0.01 | – | 96 | – | CC(C)(O)c1cc(NC(=O)Cc2ccc(C3=CCN(C#N)CC3)nc2)ncc1Cl [Compound 23, N-(5-chloro-4-(2-hydroxypropan-2-yl)pyridin-2-yl)-2-(1′-cyano-1′,2′,3′,6′-tetrahydro-[2,4′-bipyridin]-5-yl)acetamide] |
| < 0.01 | – | 84 | – | N#CN1CC=C(c2ccc(CC(=O)Nc3cc(OC4CCOC4)c(Cl)cn3)cn2)CC1 (stereo not drawn) [Compound 12, N-(5-chloro-4-((tetrahydrofuran-3-yl)oxy)pyridin-2-yl)-2-(1′-cyano-1′,2′,3′,6′-tetrahydro-[2,4′-bipyridin]-5-yl)acetamide] |
